In patent US20240197700A1, “Methods and Compositions for Treating Lysosomal Storage Disorders” (Sanford Health, priority 2021, published 2024):

System: TFEB
Test: TFEB nuclear translocation time course in transfected N2A cells
Assay type: cell-based, mouse
Conditions: for TFEB nuclear translocation: N2A cells; for TFEB nuclear translocation (i.e., activation): overall statement, GFP-TFEB transfected N2A cells, acute treatment
Procedure: FIG. 15(A-B). Treatment with LM11A-31 stimulates TFEB nuclear translocation as monitored via time course study. For (A), wild type neuro 2A […] neuroblastoma (N2A) cells were plated and transfected with a pEGFP-N1-TFEB plasmid for a 24-hour incubation. Cells were dyed and imaged on the CellInsight™ CX7 High-Content Screening Platform (CX7) then treated with media containing vehicle or LM11A-31 (100 nM, 1 μM). Cells were imaged every 30 minutes for three hours on the CX7 with incubation between imaging sessions, and results were quantified. The statistics were analyzed using Graphpad Prism™. One-way ANOVA. Mean S.E.M. Dunnett's multiple comparisons test compared to the vehicle treated group. *p<0.05, **p<0.01, ***p<0.001, ****p<0.0001. Quantification of TFEB nuclear translocation after treatment with vehicle or LM11A-31 (100 nM, 1 μM). […] (B) Since LM11A-31 increases the expression of lysosomal genes including the PPT1 and TPP1, and Cathepsin D enzymes, we asked whether LM11A-31 increases the overall activity levels of these enzymes in cellulo. Wild type (WT) and mutant cells were treated with vehicle or LM11A-31 (100 nM). Cells were plated on day 0 and dosed with drug-containing media on DIV3 and DIV5. Cells were lysed, and protein quantification and enzyme activity assay were performed on DIV7. Data was analyzed with GraphPad Prism™. Two-way ANOVA. Mean S.E.M. Tukey's multiple comparisons test. *p<0.05, **p<0.01, ***p<0.001. ****p<0.0001.
Treatment with AF38469 stimulates TFEB nuclear translocation as monitored via time course study. For (A) and (B), wild type neuro 2A […] neuroblastoma (N2A) cells were plated and transfected with a pEGFP-N1-TFEB plasmid for a 24-hour incubation. Cells were treated with vehicle or AF38469 (40 nM, 400 nM) for three hours then immunocytochemistry was performed with anti-GFP (Abcam, ab13970) and 4′, -diamidino-2-phenylindole-dihydrochloride (DAPI). Cells were imaged on the Nikon AIR confocal microscope. For (C), wild type N2A cells were plated and transfected with a pEGFP-N1-TFEB plasmid for a 24-hour incubation. Cells were dyed and imaged on the CellInsight™ CX7 High-Content Screening Platform (CX7) then treated with media containing vehicle or AF38469 (40 nM, 400 nM). Cells were imaged every 30 minutes for three hours on the CX7 with incubation between imaging sessions, and results were quantified. The statistics were analyzed using Graphpad Prism™. One-way ANOVA. Mean±S.E.M. Dunnett's multiple comparisons test compared to the vehicle treated group. *p<0.05,**p<0.01, ***p<0.001, ****p<0.0001. […] TFEB is a transcription factor that stimulates transcription of genes that are necessary for lysosomal biogenesis and function. Thus, increased TFEB nuclear translocation is expected to stimulate lysosomal biogenesis and function.

Cc1cccc(NC(=O)c2ccc(C(F)(F)F)cc2C(=O)O)n1 [AF38469, 2-((6-methylpyridin-2-yl)carbamoyl)-5-(trifluoromethyl)benzoic acid]
TFEB nuclear translocation (40 nM and 400 nM, 180 minutes of incubation, vs vehicle): significant increase
TFEB nuclear translocation (40 nM, 90 minutes of incubation, vs vehicle): significant increase
TFEB nuclear translocation (i.e., activation): stimulated

CC[C@H](C)[C@H](N)C(=O)NCCN1CCOCC1 [LM11A-31, N-[2-(morpholin-4-yl)ethyl]-L-isoleucinamide]
TFEB nuclear translocation (100 nM and 1 μM, 180 minutes of incubation): increasing trend continued
TFEB nuclear translocation (100 nM, 90 minutes of incubation): significant increase
TFEB nuclear translocation (i.e., activation): stimulated
